# Measured values reported in PubChem BioAssay (NCI).
#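 Protocol summary: plate cells (96-well), add compound at 5 concentrations, incubate 48 h, interpolate endpoints linearly. TGI is the concentration that stops growth completely.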
# Legend:
# Assay in all cases: NCI anticancer screen, dose series, 48 h
# 786-0 renal = tested on: 786-0 renal
# A549 NSCLC = tested on: A549 NSCLC
# ACHN renal = tested on: ACHN renal
# CAKI-1 renal = tested on: CAKI-1 renal
# COLO 205 colon = tested on: COLO 205 colon
# DLD-1 colon = tested on: DLD-1 colon
# DMS 114 small cell lung = tested on: DMS 114 small cell lung
# EKVX NSCLC = tested on: EKVX NSCLC
# HCC-2998 colon = tested on: HCC-2998 colon
# HCT-116 colon = tested on: HCT-116 colon
# HOP-62 NSCLC = tested on: HOP-62 NSCLC
# HOP-92 NSCLC = tested on: HOP-92 NSCLC
# HT29 colon = tested on: HT29 colon
# IGROV1 ovarian = tested on: IGROV1 ovarian
# K-562 leukemia = tested on: K-562 leukemia
# KM20L2 colon = tested on: KM20L2 colon
# LOX IMVI melanoma = tested on: LOX IMVI melanoma
# LXFL 529 NSCLC = tested on: LXFL 529 NSCLC
# M14 melanoma = tested on: M14 melanoma
# M19-MEL melanoma = tested on: M19-MEL melanoma
# MALME-3M melanoma = tested on: MALME-3M melanoma
# NCI-H226 lung = tested on: NCI-H226 lung
# NCI-H23 lung = tested on: NCI-H23 lung
# NCI-H522 lung = tested on: NCI-H522 lung
# OVCAR-3 ovarian = tested on: OVCAR-3 ovarian
# OVCAR-4 ovarian = tested on: OVCAR-4 ovarian
# RPMI-8226 leukemia = tested on: RPMI-8226 leukemia
# RXF 393 renal = tested on: RXF 393 renal
# RXF-631 renal = tested on: RXF-631 renal
# SF-268 CNS = tested on: SF-268 CNS
# SF-295 CNS = tested on: SF-295 CNS
# SF-539 CNS = tested on: SF-539 CNS
# SK-MEL-2 melanoma = tested on: SK-MEL-2 melanoma
# SK-MEL-28 melanoma = tested on: SK-MEL-28 melanoma
# SK-OV-3 ovarian = tested on: SK-OV-3 ovarian
# SN12C renal = tested on: SN12C renal
# SNB-19 CNS = tested on: SNB-19 CNS
# SNB-75 CNS = tested on: SNB-75 CNS
# SW-620 colon = tested on: SW-620 colon
# TK-10 renal = tested on: TK-10 renal
# UACC-257 melanoma = tested on: UACC-257 melanoma
# UACC-62 melanoma = tested on: UACC-62 melanoma
# XF 498 CNS = tested on: XF 498 CNS
# DMS 273 small cell lung = tested on: DMS 273 small cell lung
# HCT-15 colon = tested on: HCT-15 colon
# HL-60(TB) leukemia = tested on: HL-60(TB) leukemia
# KM12 colon = tested on: KM12 colon
# MOLT-4 leukemia = tested on: MOLT-4 leukemia
# NCI-H460 lung = tested on: NCI-H460 lung
# OVCAR-5 ovarian = tested on: OVCAR-5 ovarian
# OVCAR-8 ovarian = tested on: OVCAR-8 ovarian
# SR leukemia = tested on: SR leukemia
# U251 CNS = tested on: U251 CNS
# UO-31 renal = tested on: UO-31 renal
# CCRF-CEM leukemia = tested on: CCRF-CEM leukemia
# SNB-78 CNS = tested on: SNB-78 CNS
compound,measurement,setting,value
NC(N)=N/N=C(/CCN1CCCC1)CC(c1ccccc1)c1c(O)c2ccccc2oc1=O (stereo not given),TGI,786-0 renal,> 100 µM
same,TGI,A549 NSCLC,> 100 µM
same,TGI,ACHN renal,> 100 µM
same,TGI,CAKI-1 renal,> 100 µM
same,TGI,COLO 205 colon,> 100 µM
same,TGI,DLD-1 colon,> 100 µM
same,TGI,DMS 114 small cell lung,> 100 µM
same,TGI,EKVX NSCLC,> 100 µM
same,TGI,HCC-2998 colon,> 100 µM
same,TGI,HCT-116 colon,> 100 µM
same,TGI,HOP-62 NSCLC,> 100 µM
same,TGI,HOP-92 NSCLC,> 100 µM
same,TGI,HT29 colon,> 100 µM
same,TGI,IGROV1 ovarian,> 100 µM
same,TGI,K-562 leukemia,> 100 µM
same,TGI,KM20L2 colon,> 100 µM
same,TGI,LOX IMVI melanoma,> 100 µM
same,TGI,LXFL 529 NSCLC,> 100 µM
same,TGI,M14 melanoma,> 100 µM
same,TGI,M19-MEL melanoma,> 100 µM
same,TGI,MALME-3M melanoma,> 100 µM
same,TGI,NCI-H226 lung,> 100 µM
same,TGI,NCI-H23 lung,> 100 µM
same,TGI,NCI-H522 lung,> 100 µM
same,TGI,OVCAR-3 ovarian,> 100 µM
same,TGI,OVCAR-4 ovarian,> 100 µM
same,TGI,RPMI-8226 leukemia,> 100 µM
same,TGI,RXF 393 renal,> 100 µM
same,TGI,RXF-631 renal,> 100 µM
same,TGI,SF-268 CNS,> 100 µM
same,TGI,SF-295 CNS,> 100 µM
same,TGI,SF-539 CNS,> 100 µM
same,TGI,SK-MEL-2 melanoma,> 100 µM
same,TGI,SK-MEL-28 melanoma,> 100 µM
same,TGI,SK-OV-3 ovarian,> 100 µM
same,TGI,SN12C renal,> 100 µM
same,TGI,SNB-19 CNS,> 100 µM
same,TGI,SNB-75 CNS,> 100 µM
same,TGI,SW-620 colon,> 100 µM
same,TGI,TK-10 renal,> 100 µM
same,TGI,UACC-257 melanoma,> 100 µM
same,TGI,UACC-62 melanoma,> 100 µM
same,TGI,XF 498 CNS,> 100 µM
Clc1ccc(OCc2nnc3n2N=C(c2ccccc2)CS3)cc1,TGI,786-0 renal,30.2 µM
same,TGI,A549 NSCLC,35.1 µM
same,TGI,ACHN renal,37.5 µM
same,TGI,CAKI-1 renal,61.8 µM
same,TGI,COLO 205 colon,30.8 µM
same,TGI,DLD-1 colon,44 µM
same,TGI,DMS 273 small cell lung,30.5 µM
same,TGI,HCC-2998 colon,32.1 µM
same,TGI,HCT-116 colon,23.3 µM
same,TGI,HCT-15 colon,31 µM
same,TGI,HL-60(TB) leukemia,30.4 µM
same,TGI,HOP-62 NSCLC,34.8 µM
same,TGI,HOP-92 NSCLC,36.7 µM
same,TGI,HT29 colon,29.8 µM
same,TGI,IGROV1 ovarian,23.5 µM
same,TGI,K-562 leukemia,42.8 µM
same,TGI,KM12 colon,31.6 µM
same,TGI,KM20L2 colon,30.6 µM
same,TGI,LOX IMVI melanoma,30.8 µM
same,TGI,LXFL 529 NSCLC,40.7 µM
same,TGI,M14 melanoma,41 µM
same,TGI,M19-MEL melanoma,33.1 µM
same,TGI,MALME-3M melanoma,34.5 µM
same,TGI,MOLT-4 leukemia,62.5 µM
same,TGI,NCI-H226 lung,39.9 µM
same,TGI,NCI-H23 lung,25.2 µM
same,TGI,NCI-H460 lung,30.5 µM
same,TGI,NCI-H522 lung,36.5 µM
same,TGI,OVCAR-3 ovarian,32.4 µM
same,TGI,OVCAR-4 ovarian,30.6 µM
same,TGI,OVCAR-5 ovarian,36.1 µM
same,TGI,OVCAR-8 ovarian,27.3 µM
same,TGI,RPMI-8226 leukemia,32.7 µM
same,TGI,RXF-631 renal,31.1 µM
same,TGI,SF-268 CNS,39.9 µM
same,TGI,SF-295 CNS,36.7 µM
same,TGI,SF-539 CNS,33.3 µM
same,TGI,SK-MEL-2 melanoma,34.4 µM
same,TGI,SK-MEL-28 melanoma,38.2 µM
same,TGI,SK-OV-3 ovarian,44.7 µM
same,TGI,SN12C renal,25.8 µM
same,TGI,SNB-19 CNS,46.3 µM
same,TGI,SNB-75 CNS,85.7 µM
same,TGI,SR leukemia,29.5 µM
same,TGI,SW-620 colon,32.9 µM
same,TGI,TK-10 renal,53.4 µM
same,TGI,U251 CNS,31.9 µM
same,TGI,UACC-257 melanoma,29.3 µM
same,TGI,UACC-62 melanoma,28.4 µM
same,TGI,UO-31 renal,20.8 µM
same,TGI,XF 498 CNS,30.9 µM
CC(C)c1ccccc1NC(=O)CCC(=O)NN,TGI,786-0 renal,> 100 µM
same,TGI,A549 NSCLC,> 100 µM
same,TGI,ACHN renal,> 100 µM
same,TGI,CAKI-1 renal,> 100 µM
same,TGI,CCRF-CEM leukemia,> 100 µM
same,TGI,DLD-1 colon,> 100 µM
same,TGI,DMS 273 small cell lung,> 100 µM
same,TGI,EKVX NSCLC,> 100 µM
same,TGI,HCT-116 colon,> 100 µM
same,TGI,HCT-15 colon,> 100 µM
same,TGI,HL-60(TB) leukemia,> 100 µM
same,TGI,HOP-92 NSCLC,> 100 µM
same,TGI,IGROV1 ovarian,> 100 µM
same,TGI,K-562 leukemia,> 100 µM
same,TGI,KM12 colon,> 100 µM
same,TGI,KM20L2 colon,> 100 µM
same,TGI,LOX IMVI melanoma,> 100 µM
same,TGI,LXFL 529 NSCLC,> 100 µM
same,TGI,M14 melanoma,> 100 µM
same,TGI,M19-MEL melanoma,> 100 µM
same,TGI,MALME-3M melanoma,> 100 µM
same,TGI,MOLT-4 leukemia,> 100 µM
same,TGI,NCI-H226 lung,> 100 µM
same,TGI,NCI-H23 lung,> 100 µM
same,TGI,NCI-H522 lung,> 100 µM
same,TGI,OVCAR-3 ovarian,> 100 µM
same,TGI,RPMI-8226 leukemia,> 100 µM
same,TGI,RXF-631 renal,> 100 µM
same,TGI,SF-268 CNS,> 100 µM
same,TGI,SF-295 CNS,> 100 µM
same,TGI,SF-539 CNS,> 100 µM
same,TGI,SK-MEL-2 melanoma,> 100 µM
same,TGI,SK-MEL-28 melanoma,> 100 µM
same,TGI,SK-OV-3 ovarian,> 100 µM
same,TGI,SN12C renal,> 100 µM
same,TGI,SNB-19 CNS,> 100 µM
same,TGI,SNB-75 CNS,> 100 µM
same,TGI,SNB-78 CNS,> 100 µM
same,TGI,SR leukemia,> 100 µM
same,TGI,SW-620 colon,> 100 µM
same,TGI,TK-10 renal,> 100 µM
same,TGI,U251 CNS,> 100 µM
same,TGI,UACC-257 melanoma,> 100 µM
same,TGI,UACC-62 melanoma,> 100 µM
same,TGI,UO-31 renal,> 100 µM
same,TGI,XF 498 CNS,> 100 µM
